1 compound from patent US20080299588A1, “Methods For Measuring Bone Formation” (The Curators of the University of Missouri A public …, priority 2007, published 2008) can be followed below.

SMILES strings stand for the structures. “Also recorded” adds a separate entry of the source.

The subject of one data set is BAG-75 and BSP. The data set is described as follows: Uptake and proteolytic cleavage of BAG-75 and BSP in mineralizing UMR cultures (SDS-PAGE, staining, immunoblotting). Format: cell-based, Rat. The method, then:
Two Step Extraction of Cell Layer—2-Step Method. During the final 24 hour mineralization period, cells were grown in BSA-free, serum-free media conditions to reduce the amount of BSA in fractions used for 2-dimensional gel electrophoresis. Media was removed from each flask, heated at 95° C. for 5 minutes, dialyzed against 5% acetic acid, and lyophilized to dryness. Cell layers were first extracted without mixing for 2 h at 4° C. in 0.05 M Tris-acetate buffer (pH 7.5) containing 0.15 M NaCl, 0.05 M EDTA and 0.02% sodium azide; extracts were then inactivated at 95° C. for 5 minutes, dialyzed against 5% HAc, and lyophilized to dryness. The residual cell layer was next dislodged by scrapping and then extracted overnight at 4° C. by slow mixing with 0.1 M Trisacetate buffer (pH 7.5) containing 8 M urea, 2% (w/v) CHAPS and 0.02% sodium azide. Urea extracts were then homogenized and clarified by ultracentrifugation at 30,000 rpm for 1 h at 4° C. in an SW 50.1 rotor prior to use in 2-dimensional gel electrophoresis.
Western Blotting—Chemiluminescence Detection. […]
The effect of AEBSF on the protein distribution within mineralizing cultures was analyzed using cells grown until 64 hours, at which time they were fed with one of four different media conditions. […]
(A western blot detects proteins with antibodies after separation by electrophoresis.)

The test system of data set [1] is UMR-106 cells. The data set is described as follows: Mineral deposition (hydroxyapatite) within BMF in UMR 106-01 cultures, Alizarin red S quantitation. Format: cell-based, Rat. The method, then:
(§1) Cell Culture. UMR 106-01 cells were maintained and cultured at 37° C. and 5% carbon dioxide. Cells were seeded at a density of 1.0×10^5 cells/cm^2 in Growth Medium (Eagle's MEM supplemented with Earle's salts, 1% non-essential amino acids, 10 mM, HEPES, pH 7.2, and 10% fetal bovine serum). After 24 hours (h), the medium was exchanged with Growth Medium containing 0.5% BSA. Sixty-four hours after plating, the culture medium was exchanged with Mineralization Media (Growth Medium containing either 0.1% BSA or 10% fetal bovine serum and 7 mM β-glycerol phosphate). Cultures were then incubated for an additional 24 hours, at the end of which (88 h), the cells were fixed in 70% ethanol and either subjected to MTT assay or extracted for protein. In some experiments, protease inhibitors, including serine protease inhibitor AEBSF (4-(2-aminoethyl)-benzenesulfonylfluoride HCl), were added to cultures at 64 h after plating in Mineralization Media. Alternatively, AEBSF was added at 44 h after plating; inhibitor was then removed and exchanged for Mineralization Media at 64 h and the amount of mineralization analyzed at 88 h.
Quantitation of Mineralization. […] Bound dye was quantitated by extraction for 2 h at 4° C. in cold 10 mM HCl in 70% ethanol. The initial extract was collected and combined with a second extract and then read at 520 nm in a spectrophotometer. A standard curve for Alizarin red S dye was constructed for each analysis and the amount of bound dye/culture well was determined. […] Combined extracts were read at 520 nm in a spectrophotometer and the amount of bound dye/culture well was determined based on a standard curve.
To investigate the nature of the protease activity responsible for BAG-75/BSP cleavage and the relationship of cleavage with mineralization, a variety of protease inhibitors (Table 1) were tested in the UMR model. Individual inhibitors were added to confluent cultures at 64 hours after plating and the amount of hydroxyapatite deposited within BMF was quantitated 24 hours later. […]

For data set [2], the system named is primary mouse calvarial cultures. Description: MTT assay in primary mouse calvarial cultures. The note with it: 0.01 to 0.1 mM, scored on day 12. Format: cell-based. How it is done:
Primary mouse calvaria were isolated from 3-5 day old mice and digested with trypsin/collagenase. Three sequential enzymatic digestions were pooled and spun down at 1500 rpm and the cells were resuspended in alpha-MEM containing 10% fetal bovine serum, 2 mM L-glutamine, 100 u/ml penicillin and 30 ug/ml gentamicin (Alpha-Growth Medium). Cells were plated directly at a density of 2-3×10^6 cells per T-75 cm2 flask and allowed to reach confluency (3-4 days). Confluent cultures were passaged by trypsinization and re-plating in 12- or 24-well culture dishes at a density of 20,000 cells per cm2. Cultures were subsequently re-fed at three-day intervals with Alpha-Growth Medium supplemented with 50 ug/ml ascorbic acid and 5 mM beta-glycerol phosphate. Beta-glycerol phosphate was omitted from some wells, which served as an unmineralized control. […] A second set was fixed on day 12 with 70% ethanol and processed for quantitative Alizarin red S staining as described for UMR cultures.
MTT Assays Culture wells were washed with Eagle's MEM supplemented with Earle's salts and then incubated with a solution of 0.5 mg/ml MTT (3-(4,5-dimethylthiazol-2-yl)-2,5-diphenyl-2Htetrazolium bromide) in Eagle's MEM for 1-2 h at 37° C. Excess MTT solution was removed, the cells disrupted by mixing briefly with dimethylsulfoxide, and free, reduced dye was read at 490 or 540 nm in a spectrophotometer.

The test system of data set [3] is procollagen C proteinase enhancer protein, 1,25-D3-MARRS, nascent polypeptide associated complex alpha chain. Description: 2-D SDS-PAGE and mass spectrometry of cell layer EDTA extracts, fragmentation of mineralization related proteins. Format: cell-based, Rat. Conditions: +BGP versus +BGP with 0.04 mM AEBSF, serum-depleted. The method, then: Two Step Extraction of Cell Layer—2-Step Method. During the final 24 hour mineralization period, cells were grown in BSA-free, serum-free media conditions to reduce the amount of BSA in fractions used for 2-dimensional gel electrophoresis. Media was removed from each flask, heated at 95° C. for 5 minutes, dialyzed against 5% acetic acid, and lyophilized to dryness. Cell layers were first extracted without mixing for 2 h at 4° C. in 0.05 M Tris-acetate buffer (pH 7.5) containing 0.15 M NaCl, 0.05 M EDTA and 0.02% sodium azide; extracts were then inactivated at 95° C. for 5 minutes, dialyzed against 5% HAc, and lyophilized to dryness. […]
Mass Spectrometric Analyses. Protein bands were detected by staining with Coomassie blue G or with Sypro Ruby dye according to the manufacturer's instructions (Bio-Rad, Inc.). […] The data were analyzed using Mascot (Matrix Science, LTD), to find protein matches in the MSDB—20050227.fasta database. […]
AEBSF is a general serine protease inhibitor and the inhibition of mineralization by AEBSF could very well be due to the blockage of cleavage events of other necessary proteins. […] There were no major differences detected between the two growth conditions for either the urea extract or the media fraction. However, the differences detected between the two EDTA extracts were visually dramatic (FIG. 9). […]

For data set [4], the system named is UMR-106 cells. The data set is described as follows: MTT cell viability assay in UMR 106-01 cultures. Format: cell-based, Rat. The method, then:
as §1, with “In some experiments, protease inhibitors, including serine protease inhibitor AEBSF (4-(2-aminoethyl)-benzenesulfonylfluoride HCl), were added to cultures at 64 h after plating in Mineralization Media.” left out
MTT Assays Culture wells were washed with Eagle's MEM supplemented with Earle's salts and then incubated with a solution of 0.5 mg/ml MTT (3-(4,5-dimethylthiazol-2-yl)-2,5-diphenyl-2Htetrazolium bromide) in Eagle's MEM for 1-2 h at 37° C. Excess MTT solution was removed, the cells disrupted by mixing briefly with dimethylsulfoxide, and free, reduced dye was read at 490 or 540 nm in a spectrophotometer. […]
(In general: Tetrazolium assays rely on reduction of a dye to a coloured formazan, in cell work by metabolically active cells.)

On to `Cl.NCCc1ccc(S(=O)(=O)F)cc1` [AEBSF, 4-(2-aminoethyl)-benzenesulfonylfluoride HCl], for which the “uptake of BAG-75 and BSP (75 kDa glycophosphoprotein band) from media by the cell layer” value in the data set with BAG-75 and BSP (0.1 mM AEBSF with 7 mM β-glycerol phosphate, 64-88 hours, HCl) is given as “blocked; also recorded: blocks uptake”. For the same compound, in the data set with BAG-75 and BSP (UMR cultures with β-glycerol phosphate, two stage extraction, immunoblot), the “proteolytic cleavage of BAG-75 and BSP to 45-50 kDa fragments” value is “blocks uptake and cleavage”. Further, the “concentration capable of completely blocking mineral nucleation (as low as)” value with UMR-106 cells [1] (UMR cultures, 64-88 h after plating) worked out at 0.04 mM. Besides, the “effect on mineral nucleation / mineralization in BMF” value with UMR-106 cells [1] (UMR system, added at 64 hours after plating, optimal recommended dosage) is reported as “blocked mineral nucleation”. Further, the “difference in effectiveness, mineralization period (64-88 h) versus proliferation/differentiation period (44-64 h after plating)” value with UMR-106 cells [1] (assuming baseline mineral level of 150-170 nmoles/well, FIG. 4A) was 10 fold. Further, in data set [2], the “change in viable cell number (MTT)” value was “little change in viable cell number”. The “cleavage of three additional proteins in EDTA extract” value in data set [3] was “inhibited the cleavage”. Moreover, the “concentration below which no loss of cell viability was noted (MTT)” value in the data set on UMR-106 cells [4] (rat, UMR 106-01 cells, pH 7.2) was “below 1 mM”. Further, the “concentration above which toxic (MTT)” value in the data set with UMR-106 cells [4] (serum-sufficient or serum-depleted conditions) is recorded as “above 0.4 mM”.
